Laboratory results from US20050113419A1, “Therapeutic compounds for treating dyslipidemic conditions” (priority 2003, published 2005).

Columns and labels:
Caco-2 cells = assay: Cholesterol efflux from cultured human Caco-2 cells; assay type: cell-based; conditions: 10 μg/ml apoA-I, 24 hours, mean of quadruplicate incubations
Protocol: Caco-2 cells, which are of human origin, were obtained from ATCC and grown in Opti-MEM (Gibco #51985-034) containing 10% FCS, non-essential amino acids (Gibco #11140-050), and vitamins (Gibco # 11120-052). Caco-2 cells were plated at 100,000 cells/well in 48-well plates. After four days the cells had reached confluence, and were then labeled with ^3H-cholesterol by incubation for 24 hours in fresh growth media containing ^3H-cholesterol (10 μCi/mi). Following labeling with ^3H-cholesterol, cells were washed and incubated an additional 24 hours in serum-free media containing 1 mg/ml BSA, to allow for equilibration of ^3H-cholesterol with intracellular cholesterol. Cholesterol efflux was initiated by adding 10 μg/ml apoA-I, with or without compound, in serum-free medium. Compounds were added to cell culture medium from DMSO solutions, and control cells received an equivalent amount of DMSO, never exceeding 0.1%. After 24 hours, media were harvested and cells dissolved in 0.1 M NaOH. Media were briefly centrifuged to remove non-adherent cells, and then aliquots of both the supernatants and the dissolved cells were subjected to liquid scintillation spectrometry to determine radioactivity. Cholesterol efflux is expressed as a percentage, calculated as (^3H-cholesterol in riedium/(^3H-cholesterol in medium+^3H-cholesterol in cells))×100.

human LXRα = target: T1, human LXRα (Homo sapiens, UniProt Q13133); assay: Radioligand competition binding scintillation proximity assay, LXRα
T1 construct: made in house; host or cells: E. coli (pGEX-KT vector)
T1 sequence (Q13133 164-447): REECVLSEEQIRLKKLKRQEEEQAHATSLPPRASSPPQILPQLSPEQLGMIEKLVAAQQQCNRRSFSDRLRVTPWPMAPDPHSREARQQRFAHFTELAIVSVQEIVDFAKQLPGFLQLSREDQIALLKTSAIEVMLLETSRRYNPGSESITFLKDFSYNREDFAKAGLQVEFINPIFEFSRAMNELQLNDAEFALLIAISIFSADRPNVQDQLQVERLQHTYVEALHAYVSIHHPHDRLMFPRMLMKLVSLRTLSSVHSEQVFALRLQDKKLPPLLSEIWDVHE
Description: Radioligand Competition Binding Scintillation Proximity Assays

| Kd (human LXRα) [nM] | Compound | % cholesterol efflux (Caco-2 cells; compound 30 nM) [%] | % cholesterol efflux (Caco-2 cells; compound 100 nM) [%] | % cholesterol efflux (Caco-2 cells; compound 300 nM) [%] | % cholesterol efflux (Caco-2 cells; compound 1000 nM) [%] | % cholesterol efflux (Caco-2 cells; compound 3000 nM) [%] | % cholesterol efflux (Caco-2 cells; compound 10000 nM) [%] |
| --- | --- | --- | --- | --- | --- | --- | --- |
|  | CCCc1c(OCCCN(C)C(=O)Nc2ccccn2)ccc2c(C(F)(F)F)noc12 [Compound (18), N′-(2-pyridyl)-N-methyl-N-(3-{[7-propyl-3-(trifluoromethyl)-1,2-benzisoxazol-6-yl]oxy}propyl)urea] | 3.4 | 3.5 | 4.9 | 5.7 | 6.8 | 5.6 |
| ~15 | CCCc1c(OCCCSc2ccc(CC(=O)O)cc2Cl)ccc2c(C(F)(F)F)noc12 [Compound A] |  |  |  |  |  |  |
